B1: BDNF: Brain-derived neurotrophic factor, positive (neuroprotective) control (protein, UniProt P23560 19-247, looked up)
Neurotrophic factor BDNF …: APMKEANIRGQGGLAYPGVRTHGTLESVNGPKAGSRGLTSLADTFEHVIEELLDEDQKVRPNEENNKDADLYTSRVMLSSQVPLEPPLLFLLEEYKNYLDAANMSMRVRRHSDPARRGELSVCDSISEWVTAADKKTAVDMSGGTVTVLEKVPVSKGQLKQYFYETKCNPMGYTKEGCRGIDKRHWNSQCRTTQSYVRALTMDSKKRIGWRFIRIDTSCVCTLTIKRGR

Columns and labels:
[1] = system: rat primary cortical neuron culture; assay: LDH release in Aβ25-35 intoxicated rat primary cortical neuron culture; assay type: cell-based; details: Aβ25-35 20 μM, 2 days; drug pre-incubated 1 h; FIG. 2
Experimental: Primary rat cortical neurons are cultured as described by Singer et al., 1999. Briefly pregnant female rats of 15 days gestation are killed by cervical dislocation (Rats Wistar; Janvier) and the foetuses removed from the uterus. The cortex are removed and placed in ice-cold medium of Leibovitz (L15; Invitrogen) containing 1% of Penicillin-Streptomycin (PS; Invitrogen) and 1% of bovine serum albumin (BSA; Sigma). Cortex are dissociated by trypsinisation for 20 min at 37° C. (Trypsin EDTA 1×; Invitrogen) diluted in PBS without calcium and magnesium. The reaction is stopped by the addition of Dulbecco's modified Eagle's medium (DMEM; Invitrogen) containing DNAase I grade II (0.1 mg/ml; Roche Diagnostic) and 10% of foetal calf serum (FCS; Invitrogen). Cells are then mechanically dissociated by 3 passages through a 10 ml pipette. Cells are then centrifuged at 180×g for 10 min at 10° C. The supernatant is discarded and the cells of pellet are re-suspended in a defined culture medium consisting of Neurobasal (Invitrogen) supplemented with B27 (2%; Invitrogen), L-glutamine (0.2 mM; Invitrogen), 1% of PS solution and 10 ng/ml of Brain-derived neurotrophic factor (BDNF, Pan Biotech). Viable cells are counted in a Neubauer cytometer using the trypan blue exclusion test. Cells are seeded at a density of 30 000 cells/well in 96 well-plates (wells are pre-coated with poly-L-lysine (10 ng/ml; Sigma)) and are cultured at 37° C. in a humidified air (95%)/CO2 (5%) atmosphere.
After 6 days of culture, cells are incubated with drugs (5 concentrations). After 1 hour, cells are intoxicated by 20 μM of β-amyloid (25-35; Sigma) in defined medium without BDNF but together with drugs. Cortical neurons are intoxicated for 2 days. BDNF (10 ng/ml) is used as a positive (neuroprotective) control.
After 2 days of culture, the supernatant is collected and analyzed with Cytotoxicity Detection Kit (LDH, Roche Applied Sciences). This colorimetric assay for the quantification of cell death is based on the measurement of lactate dehydrogenase (LDH) activity released from the cytosol of damaged cells into the supernatant. The optic density (DO) is assessed by spectrophotometer at 492 nm wavelength by a multiscan apparatus (Thermo, Ref Ascent). Results are expressed in percentage of cell viability, compared to the negative control (vehicle).
Results presented in FIGS. 1 and 2 are extracted from two independent cultures, 6 wells per condition. All values are expressed as mean±s.e.mean. A bilateral Student's t test analysis is performed on raw data. […]
Rat primary cortical neurons are incubated with drugs one hour before Aβ25-35 20 μM intoxication that lasts 2 days. Two days after this incubation, LDH release in the culture medium is quantified, reflecting the level of cell death.

[2] = system: Human Brain Microvascular Endothelial Cells (HBMEC); assay: Capillary network length in human Aβ1-42 intoxicated HBMEC on matrigel; assay type: cell-based; details: for Effect on intoxication, total length of capillary network in beta-amyloid intoxicated HBMEC cultures: Aβ1-42 2.5 μM, combination versus each drug alone at the same concentrations, FIGS. 5 and 6
Experimental: Human brain microvascular endothelial cerebral cells (HBMEC, ScienCell Ref: 1000, frozen at passage 10) were rapidly thawed in a waterbath at +37° C. The supernatant was immediately put in 9 ml Dulbecco's modified Eagle's medium (DMEM; Pan Biotech ref: P04-03600) containing 10% of foetal calf serum (FCS; GIBCO ref 10270-106). Cell suspension was centrifuged at 180×g for 10 min at +4° C. and the pellets were suspended in CSC serum-free medium (CSC serum free, Cell System, Ref: SF-4Z0-500-R, Batch 51407-4) with 1.6% of Serum free RocketFuel (Cell System, Ref: SF-4Z0-500-R, Batch 54102), 2% of Penicillin 10.000 U/ml and Streptomycin 10 mg/ml (PS; Pan Biotech ref: P06-07100 batch 133080808) and were seeded at the density of 20 000 cells per well in 96 well-plates (matrigel layer biocoat angiogenesis system, BD, Ref 354150, Batch A8662) in a final volume of 100 μl. On matrigel support, endothelial cerebral cells spontaneously started the process of capillary network morphogenesis (54).
Three separate cultures were performed per condition, 6 wells per condition.
Briefly, Aβ1-42 peptide (Bachem, ref: H1368 batch 1010533) was reconstituted in define culture medium at 20 μM (mother solution) and was slowly shacked at +37° C. for 3 days in. The control medium was prepared in the same conditions.
After 3 days, this human amyloid peptide was used on HBMEC at 2.5 μM diluted in control medium (optimal incubation time). The Aβ1-42 peptide was added 2 hours after HBMEC seeding on matrigel for 18 hours incubation.
One hour after HBMEC seeding on matrigel, test compounds and VEGF-165 were solved in culture medium (+0.1% DMSO) and then pre-incubated with HBMEC for 1 hour before the Aβ1-42 application (in a final volume per culture well of 100 μl).
VEGF-165, known to be a pro-angiogenic isoform of VEGF-A, was used for all experiments in this study as reference compound.
The following conditions were assessed: • Negative Control: medium alone+0.1% DMSO • Intoxication: amyloid-β1-42 (2.5 μM) for 18 h • Positive control: VEGF-165 (10 nM) (1 reference compound/culture) 1 hr before the Aβ1-42 (2.5 μM) addition for a 18 h incubation time. • Test compounds: Test compound I hr before the Aβ1-42 (2.5 μM) addition for a 18 h incubation time. Capillary Network Quantification
Per well, 2 pictures with 4× lens were taken using InCell Analyzer™ 1000 (GE Healthcare) in light transmission. All images were taken in the same conditions. Analysis of the angiogenesis networks was done using Developer software (GE Healthcare). The total length of capillary network was assessed.
All values are expressed as mean±s.e.mean of the 3 cultures (n=6 per condition). […] Indeed, the amyloid toxicity was taken as the 100% and the test compound effect was calculated as a % of this amyloid toxicity. […]

NGF-differentiated PC12 = assay: MTT viability of NGF-differentiated PC12 cells after Abeta25-35 intoxication; assay type: cell-based, Rat; details: Abeta25-35 10 μM, 24 h; drug pre-incubated 1 h; FIG. 1
Experimental: PC12 (Pheochromocytoma Rat, ATCC ref: CRL-1721) cells from [NT] CRL-1721) were rapidly thawed in 37° C. water. The supernatant was immediately put in 9 ml of a “PC12 proliferation medium” containing Dulbecco's modified Eagle's medium DMEM-F12 (Pan Biotech ref: P04-41450) with 15% heat-inactivated horse serum (Invitrogen ref: 16050-130), 2.5% of fetal bovine serum (FBS; Invitrogen ref: 16000-036), 1% of Penicillin 10.000 U/ml and Streptomycin 10 mg/ml (PS; Pan Biotech ref: P06-07100) and 1% de L-glutamine 200 mM (Pan Biotech ref: P04-80100). Cells were centrifuged (800 rounds/min, 4° C. for 5 min) and added in 5 ml “PC12 proliferation medium”, viable cells were counted with a Malassez cell using the neutral red exclusion test (Sigma). Then the cells were seeded at 3·10^4 cells per cm^2 in “PC12 proliferation medium” in 75 cm^2 plastic flasks (Greiner Ref: 658175) precoated with poly-L-lysine (10 μg/ml, Sigma Ref: P2636). Medium was changed every other day. After 3 days of culture, when cells reached 80% of confluence, they were washed in HBSS without calcium and magnesium (Pan Biotech Ref: P06-33500) and incubated in trypsin EDTA, (0.05%, Pan Biotech Ref: P10-023100). The enzymatic reaction was stopped with PC12 proliferation medium added by 0.5 mg/ml of DNAse 1 grade 2 (Pan Biotech Ref: T60-37780100). […]

[3] = system: rat primary cortical neuron cells; assay: LDH release in human Aβ1-42 intoxicated rat primary cortical neuron culture; assay type: cell-based; details: human Aβ1-42 10 μM, 24 h; 1 hr pre-treatment; FIG. 4
Experimental: Primary rat cortical neurons are cultured as described previously.
The control medium was prepared in the same conditions.
Cortical neurons were intoxicated for 24 hours. Three separate cultures were performed per condition, 6 wells per condition.
This colorimetric assay for the quantification of cell toxicity is based on the measurement of lactate dehydrogenase (LDH) activity released from the cytosol of dying cells into the supernatant.
All values are expressed as mean±s.e.mean of the 3 cultures (n=6 per condition).

Row | Molecule | Prevention of Aβ25-35 intoxication, LDH release in rat primary cortical neurons [1] | Effect on intoxication, total length of capillary network in beta-amyloid intoxicated HBMEC cultures [2] | other results
1 | Cc1oncc1C(=O)Nc1ccc(C(F)(F)F)cc1 [Leflunomide] | significantly prevented | – | –
2 | C[C@@H]1CC(=O)NN=C1c1ccc(NN=C(C#N)C#N)cc1 [Levosimendan] | – | no significant effect | –
3 | CCCNC(C)C(=O)Nc1ccccc1C (centres unmarked) [Prilocaln, Prilocaine] | – | – | Prevention of Abeta25-35 intoxication, viability of NGF-differentiated PC12 (MTT) (NGF-differentiated PC12): significantly prevented
4 | Cc1noc(NS(=O)(=O)c2ccc(N)cc2)c1C [Sulfisoxazole] | significantly prevented | no significant effect | Prevention of human Aβ1-42 injury in HBMEC (capillary network), single drug ([2]; human Aβ1-42 2.5 μM, 18 h, 1 hr pre-treatment, FIG. 3B): significantly prevented
5 | CN1CC(=O)N2[C@H](c3ccc4c(c3)OCO4)c3[nH]c4ccccc4c3C[C@@H]2C1=O [Tadalafil] | – | – | LDH release compared to amyloid intoxication [3]: −57%
6 | CN(C/C=C/C#CC(C)(C)C)Cc1cccc2ccccc12 [Terbinafine] | – | no significant effect | –
7 | NS(=O)(=O)Cc1noc2ccccc12 [Zonisamide] | significantly prevented | – | –
8 | B1 | efficiently prevented | – | LDH release compared to amyloid intoxication [3]: −95%

Source: patent publication US8552041B2, “Therapeutic approaches for treating alzheimer disease and related disorders through a modulation of cell stress response” (Pharnext, priority 2008, dated 2013)
